Data reported in ChEMBL document CHEMBL1139456, “Discovery of alpha,gamma-diketo acids as potent selective and reversible inhibitors of hepatitis C virus NS5b RNA-dependent RNA polymerase” (J Med Chem, 2004).

target: Nucleic Acid; assay: Inhibitory activity against alpha human DNA polymerase was determined; assay type: nucleic-acid assay

SMILES	IC50
N#Cc1c(Cl)cc(Cl)cc1COc1cccc(/C(O)=C/C(=O)C(=O)O)c1	> 5 µM

target: Nucleic Acid; assay: Inhibitory activity against gamma human DNA polymerase was determined; assay type: nucleic-acid assay

SMILES	IC50
N#Cc1c(Cl)cc(Cl)cc1COc1cccc(/C(O)=C/C(=O)C(=O)O)c1	> 5 µM

target: Human immunodeficiency virus type 1 reverse transcriptase (Human immunodeficiency virus 1, UniProt Q72547); assay: Inhibitory activity against HIV-1 reverse transcriptase was determined

SMILES	IC50
N#Cc1c(Cl)cc(Cl)cc1COc1cccc(/C(O)=C/C(=O)C(=O)O)c1	> 50 µM

target: Nucleic Acid; assay: Inhibitory activity against beta human DNA polymerase was determined; assay type: nucleic-acid assay

SMILES	IC50
N#Cc1c(Cl)cc(Cl)cc1COc1cccc(/C(O)=C/C(=O)C(=O)O)c1	> 5 µM

target: RNA-directed RNA polymerase (Hepacivirus hominis, UniProt O39930); assay: Inhibitory activity against Hepatitis C virus RNA dependent RNA polymerase nonstructural protein 5B
Sequence (O39930 whole entry): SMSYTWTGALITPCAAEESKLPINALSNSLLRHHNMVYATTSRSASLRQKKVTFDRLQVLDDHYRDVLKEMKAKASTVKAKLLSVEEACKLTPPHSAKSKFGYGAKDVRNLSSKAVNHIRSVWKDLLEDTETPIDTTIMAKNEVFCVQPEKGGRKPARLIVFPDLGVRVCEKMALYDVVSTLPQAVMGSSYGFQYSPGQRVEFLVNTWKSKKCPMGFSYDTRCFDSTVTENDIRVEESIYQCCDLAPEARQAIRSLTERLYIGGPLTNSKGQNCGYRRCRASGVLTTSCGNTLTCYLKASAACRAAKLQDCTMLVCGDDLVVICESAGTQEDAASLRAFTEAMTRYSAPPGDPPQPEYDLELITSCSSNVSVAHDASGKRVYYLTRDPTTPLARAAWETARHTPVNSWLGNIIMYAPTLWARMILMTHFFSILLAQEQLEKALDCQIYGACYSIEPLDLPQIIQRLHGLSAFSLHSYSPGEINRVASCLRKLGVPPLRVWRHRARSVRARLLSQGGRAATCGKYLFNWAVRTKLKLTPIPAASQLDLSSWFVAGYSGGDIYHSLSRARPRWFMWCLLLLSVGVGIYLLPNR

SMILES	IC50
O=C(O)C(=O)CCc1ccccc1	> 50 µM
CCc1ccc(C(=O)CC(=O)C(=O)O)cc1	47 µM
N#Cc1c(Cl)cc(Cl)cc1COc1cccc(/C(O)=C/C(=O)C(=O)O)c1	0.045 µM
CCCOc1ccccc1C(=O)CC(=O)C(=O)O	3.9 µM
Cc1ccc(C(=O)CC(=O)C(=O)O)cc1	5 µM
O=C(O)C(=O)CC(=O)c1cccc(COc2ccccc2)c1	30 µM
N#CCCCOc1ccccc1C(=O)CC(=O)C(=O)O	0.35 µM
N#CCCCOc1ccc(OCc2ccccc2C#N)cc1/C(O)=C/C(=O)C(=O)O	> 50 µM
O=C(O)C(=O)CC(=O)c1cccc(NS(=O)(=O)c2ccccc2)c1	16 µM
N#CCCCOc1cccc(/C(O)=C/C(=O)C(=O)O)c1	2.5 µM
O=C(O)C(=O)CC(=O)c1ccncc1	> 50 µM
CCCCOc1ccccc1C(=O)CC(=O)C(=O)O	10 µM
COC(=O)C(=O)CC(=O)c1ccccc1	> 50 µM
O=C(O)C(=O)CC(=O)c1ccco1	> 50 µM
O=C(O)C(=O)CC(=O)C(c1ccccc1)c1ccccc1	> 50 µM
CC(C)(C)c1ccc(C(=O)CC(=O)C(=O)O)cc1	> 50 µM

SMILES	IC50
O=C(CC(O)C(=O)O)c1ccccc1 (stereo not given)	> 50 µM
N#Cc1ccccc1COc1cccc(/C(O)=C/C(=O)C(=O)O)c1	0.23 µM
N#Cc1cccc(COc2cccc(/C(O)=C/C(=O)C(=O)O)c2)c1	6.7 µM
O=C(O)C(=O)CC(=O)c1cccnc1	> 50 µM
CC(C)(C)C(=O)CC(=O)C(=O)O	> 50 µM
O=C(O)C(=O)CC(=O)c1ccsc1	4.5 µM
O=C(O)C(=O)CC(=O)c1cccc(OCc2ccccc2)c1	8 µM
O=C(O)C(=O)CC(=O)c1ccccc1	5.7 µM
N#Cc1ccc(Br)cc1COc1cccc(/C(O)=C/C(=O)C(=O)O)c1	0.1 µM
N#Cc1c(Cl)cccc1COc1cccc(/C(O)=C/C(=O)C(=O)O)c1	0.11 µM
O=C(O)C(=O)CC(=O)c1cccc(NC(=O)c2ccccc2)c1	11 µM
O=C(O)C(=O)CC(=O)c1cccc(NCc2ccccc2)c1	16.7 µM
O=C(O)C(=O)CC(=O)c1ccccc1OCc1ccccc1	44 µM
CCCCCOc1ccccc1C(=O)CC(=O)C(=O)O	25 µM
CC(=O)CC(=O)C(=O)O	> 50 µM
